Laboratory results as given in US12233060B2, “Inhibitors of Ataxia-Telangiectasia Mutated and Rad3-related protein kinase (ATR) for use in methods of treating cancer” (THE INSTITUTE OF CANCER RESEARCH: ROYAL CANCER HOSPITAL, priority 2016, dated 2025).

Key:
[1] = test system: HCT116 ARID1A+/+ and ARID1A−/− cells; test: PARP cleavage western blot; format: cell-based, human; settings: 24 hours exposure; camptothecin 1 uM positive control
Protocol: FIG. 3. In vivo ARID1A/ATR synthetic lethality. A. Schematic of VX-970 therapy experiment in mice bearing established HCT116 ARID1A^+/+ and ARID1A^−/− xenografts. Cells were inoculated subcutaneously into nude mice and tumors allowed to establish for 10 days. Mice were then randomized to treatment regimens of either VX-970 (60 mg/kg, 4× weekly by oral gavage) or vehicle. Mice were then treated for a subsequent 40 days. Tumor volume was monitored twice weekly. B. Relative tumor volume plot from (A) showing efficacy of VX-970 and selectivity for ARID1A^−/− xenografts* p=0.024, ANOVA. C. Schematic of tumor incidence experiment in mice with non-established HCT116 ARID1A^+/+ and ARID1A^−/− xenografts. […] Tumor volume was monitored twice weekly and overall tumour incidence was assessed 40 days later. […] PARP-1, cleaved PARP-1 (85 kDa fragment) and tubulin were detected by western blot. […] Caspase3/7 activity was assessed using Caspase-Glo and total cellular viability was estimated using CellTitre-Glo. Luminescence ratios for Caspase-Glo (i.e. apoptotic cells) and CellTitre-Glo (ie viable cells) was determined for each dose and normalized to DMSO treated samples. *Student's t-test, p<0.05. […]
FIG. 5. […] The percentage of cells in G2/M was measured by FACS following PI staining. […] A minimum of 50 anaphases were scored in 3 biological replicate experiments. *p=0.023, Student's t-test. […]

[2] = test system: HCT116 ARID1A+/+ and ARID1A−/− cells; test: Mitotic spreads, chromosomal aberrations; format: cell-based, human; settings: VX-970 1 uM; p=0.0007 Student's t-test
Protocol: FIG. 5. ATRi effect on cell cycle progression, chromosomal instability, DNA damage and apoptosis. A. Barchart illustrating G2/M fraction in HCT116 ARID1A^+/+ and ARID1A^−/− cells synchronized in G1/early S phase by double thymidine block and released into fresh media containing DMSO or VX-970 (500 nM). The percentage of cells in G2/M was measured by FACS following PI staining. […] Cells were stained with DAPI. A minimum of 50 anaphases were scored in 3 biological replicate experiments. *p=0.023, Student's t-test. C. Bar chart illustrating frequency of anaphase bridges in TOV21G cells exposed to VX-970 (0.5 uM) or DMSO for 8 hours prior to fixation. Experiment performed as for (B). p=0.006 Student's t-test. D. Mitotic spread images from HCT116 ARID1A^+/+ and ARID1A^−/− cells following exposure to either DMSO or VX-970 (1 uM). Scale bar represents 20 um. E. Bar chart illustrating extent of chromosomal abnormalities in HCT116 ARID1A^+/+ and ARID1A^−/− cells exposed to VX-970 (1 uM). *p<0.05, Student's t-test. F. Western blot illustrating γH2AX in HCT116 ARID1A^+/+ and ARID1A^−/− cells exposed to VX-970 (0.5 uM) for the indicated time prior to cell lyses. G. Bar chart illustrating apoptotic fraction in cells exposed to increasing concentrations of VX-970 for 24 hours. Experiment as per FIG. 3I. H. Western blot illustrating PARP cleavage in HCT116 ARID1A^+/+ and ARID1A^−/− cells exposed to VX-970. […]

## CNCc1ccc(-c2cc(-c3nc(-c4ccc(S(=O)(=O)C(C)C)cc4)cnc3N)on2)cc1 [VX-970, 5-[4-(Isopropylsulfonyl)phenyl]-3-(3-{4-[(methylamino)methyl]phenyl}-1,2-oxazol-5-yl)-2-pyrazinamine]
[1]
  PARP-cleavage, ARID1A−/− vs ARID1A+/+: far higher levels of PARP-cleavage
[2]
  frequency of chromosomal aberrations in ARID1A−/− cells: significant enhancement in the frequency of chromosomal aberrations
